The subject of assay [1] is STIM1-induced Ca2+ entry in HEK[STIM1] cells. The method, then: (§1) To test whether the Ca^2+ entry pathway constitutively activated by STIM 1 overexpression is pharmacologically similar to endogenous SOCE, HEK[STIM1] cells are pre-incubated with increasing doses of 2-APB and STIM1-induced Ca^2+ entry is measured.
Assay [2] concerns store-operated calcium entry in HEK-Zeo control cells. To be noted: read-out: IC50 for inhibition of calcium entry, thapsigargin store depletion, readdition of external calcium, pre-incubation with increasing doses. The method, then:
as §1

Assay [3] has as its system store-operated calcium entry in HEK[STIM1] cells. To be noted: read-out: IC50 for inhibition of calcium entry, thapsigargin store depletion, readdition of external calcium, pre-incubation with increasing doses. The method, then: as §1

As a reminder, the IC50 is the concentration that inhibits the measured activity by half. Regarding `NCCOB(c1ccccc1)c1ccccc1` [Compound 2-APB, 2-aminoethoxydiphenyl borate], in assay [1] (absence of store depletion, lower concentrations of 2-APB (biphasic effect)), the “effect on calcium entry at lower concentrations” value was “potentiated”. For the same molecule, the IC50 in assay [1] (read-out: IC50 for inhibition of constitutive calcium entry, absence of store depletion) was determined as 10.8 µM; in assay [2], 11.8 µM; in assay [3], 10.5 µM.
